Columns and labels:
[1] = Mutagenicity in Salmonella typhimurium TA98 assessed as number of revertant colonies at 10 ug per plate incubated for 90 mins by AMES test (reference value: 22.67 +/- 0.58); type: toxicity, Salmonella enterica subsp. enterica serovar Typhimurium; details: in vivo, 1.5 h, dose 10 µg
[2] = tested on: Trypanosoma cruzi; assay: (§1) Antitrypanosomal activity against Trypanosoma cruzi Tulahuen amastigotes transfected with Escherichia coli beta-galactosidase LacZ gene infected in monkey LLC-MK2 cells assessed as inhibition of amastigotes growth incubated for 72 hrs by absorbance based microplate reader analysis; type: functional, organism-based; details: LLC-MK2, 72 h
[3] = Cytotoxicity against monkey LLC-MK2 cells incubated for 72 hrs by MTT assay; type: toxicity, cell-based, Macaca mulatta; details: rhesus monkey
[4] = Selectivity index, ratio of CC50 for cytotoxicity against monkey LLC-MK2 cells to IC50 for antitrypanosomal activity against Trypanosoma cruzi Tulahuen amastigotes transfected with Escherichia coli beta-galactosidase LacZ gene infected in monkey LLC-MK2 cells; type: toxicity, cell-based; details: read-out: Ratio CC50/IC50
[5] = tested on: Leishmania amazonensis; assay: Antileishmanial activity against Leishmania amazonensis IFLA/BR/1967/PH8 amastigotes infected in murine peritoneal macrophages incubated for 24 hrs by Giemsa staining based analysis; type: functional, organism-based; details: IFLA/BR/1967/PH8, Peritoneal macrophage
[6] = Substrate activity at Trypanosoma cruzi type I nitro reductase assessed as reduction in NADH incubated for 120 sec by spectrophotometric analysis
[7] = tested on: Trypanosoma cruzi; assay: as §1, with “Potency index, ratio of Benznidazole IC50 to test compound IC50 for antitrypanosomal” for “Antitrypanosomal”; type: functional
[8] = Mutagenicity in Salmonella typhimurium TA100 assessed as number of revertant colonies at 2.5 ug per plate incubated for 90 mins by AMES test (reference value: 88.00 +/- 2.65); type: toxicity, Salmonella enterica subsp. enterica serovar Typhimurium; details: in vivo, 1.5 h, dose 2.5 µg

SMILES | Activity [1] | IC50 [2] [µM] | CC50 at 72 h [3] [µM] | selectivity ratio [4] | IC50 [5] [µM] | pIC50 [6] | Ratio IC50 [7] | Activity [8]
Nc1ccc([N+](=O)[O-])cc1N | 253 |  |  |  |  |  |  | 
O=C(O)c1ccc(-n2cc(Cn3cnc([N+](=O)[O-])n3)nn2)cc1 |  | > 50 | > 50 | > 1 | 4.7 |  |  | 
O=[N+]([O-])c1ncn(Cc2cn(-c3ccc(F)c(F)c3)nn2)n1 |  | 22.6 | > 50 | > 4.4 | 4.7 |  |  | 
O=[N+]([O-])c1ncn(Cc2cn(-c3cccc(C(F)(F)F)c3)nn2)n1 |  | 5.8 | > 50 | > 17.2 | 4.7 |  |  | 
COc1cc(OC)cc(-n2cc(Cn3cnc([N+](=O)[O-])n3)nn2)c1 |  | 0.22 | > 50 | > 227 | 4.7 | 6.65 |  | 
COc1ccc(-n2cc(Cn3cnc([N+](=O)[O-])n3)nn2)cc1OC |  | 1.12 | > 50 | > 44.6 | 4.7 | 5.95 |  | 
CSc1ccc(-n2cc(Cn3cnc([N+](=O)[O-])n3)nn2)cc1 |  | 0.21 | > 50 | > 238 | 4.7 | 6.67 |  | 
CCOC(=O)c1ccc(-n2cc(Cn3cnc([N+](=O)[O-])n3)nn2)cc1 |  | 38.4 | > 50 | > 1.3 | 4.7 |  |  | 
CS(=O)(=O)c1ccc(-n2cc(Cn3cnc([N+](=O)[O-])n3)nn2)cc1 |  | > 50 | > 50 | > 1 | 4.7 |  |  | 
O=[N+]([O-])c1ccc(-n2cc(Cn3cnc([N+](=O)[O-])n3)nn2)cc1 |  | 0.61 | > 50 | > 82 | 4.7 | 6.21 |  | 
COc1cccc(-n2cc(Cn3cnc([N+](=O)[O-])n3)nn2)c1 |  | 7.93 | > 50 | > 6.3 | 4.7 |  |  | 
O=[N+]([O-])c1ncn(Cc2cn(-c3ccc(Cl)c(Cl)c3)nn2)n1 |  | 0.11 | > 50 | > 454 | 4.7 | 6.95 | <=55 | 
O=[N+]([O-])c1ncn(Cc2cn(-c3ccc(C(F)(F)F)cc3)nn2)n1 |  | 3.6 | > 50 | > 27.9 | 4.7 |  |  | 
N#Cc1ccc(-n2cc(Cn3cnc([N+](=O)[O-])n3)nn2)cc1 |  | 1.45 | > 50 | > 34.5 | 4.7 |  |  | 
NS(=O)(=O)c1ccc(-n2cc(Cn3cnc([N+](=O)[O-])n3)nn2)cc1 |  | > 50 | > 50 | > 1 | 4.7 |  |  | 
COc1cc(-n2cc(Cn3cnc([N+](=O)[O-])n3)nn2)cc(OC)c1OC |  | 2.89 | > 50 | > 17.3 | 4.7 |  |  | 

SMILES | Activity [1] | IC50 [2] [µM] | CC50 at 72 h [3] [µM] | selectivity ratio [4] | IC50 [5] [µM] | pIC50 [6] | Ratio IC50 [7] | Activity [8]
N#Cc1cccc(-n2cc(Cn3cnc([N+](=O)[O-])n3)nn2)c1 |  | 7.35 | > 50 | > 6.8 | 4.7 |  |  | 
O=[N+]([O-])c1ncn(Cc2cn(-c3cccc(Cl)c3)nn2)n1 |  | 5.72 | > 50 | > 8.74 | 4.7 |  |  | 
O=[N+]([O-])c1ncn(Cc2cn(-c3ccc(F)cc3)nn2)n1 |  | 1.11 | > 50 | > 45 | 4.7 | 5.95 |  | 
COc1ccc(-n2cc(Cn3ccnc3[N+](=O)[O-])nn2)cc1OC |  | 0.65 |  |  |  |  |  | 
O=[N+]([O-])c1ncn(Cc2cn(-c3ccccc3)nn2)n1 |  | 1.35 | > 50 | > 37 | 4.7 | 5.86 |  | 
O=[N+]([O-])c1ncn(Cc2cn(-c3ccc(Cl)c(C(F)(F)F)c3)nn2)n1 |  | 9.89 | > 50 | > 5.05 | 4.7 |  |  | 
O=C(O)c1cccc(-n2cc(Cn3cnc([N+](=O)[O-])n3)nn2)c1 |  | > 50 | > 50 | > 1 | 4.7 |  |  | 
Cc1ccc(-n2cc(Cn3cnc([N+](=O)[O-])n3)nn2)cc1 |  | 0.33 | > 50 | > 152 | 4.7 | 6.48 |  | 
O=[N+]([O-])c1cccc(-n2cc(Cn3cnc([N+](=O)[O-])n3)nn2)c1 |  | 24.4 | > 50 | > 4.1 | 4.7 |  |  | 
O=[N+]([O-])c1ncn(Cc2cn(-c3ccc(Oc4ccccc4)cc3)nn2)n1 |  | 0.07 | > 50 | > 714 | 4.7 | 7.15 |  | 
O=[N+]([O-])c1ncn(Cc2cn(-c3ccc4c(c3)OCO4)nn2)n1 |  | 13.8 | > 50 | > 3.62 | 89.5 |  |  | 
O=[N+]([O-])c1ncn(Cc2cn(-c3ccc(Cl)cc3)nn2)n1 |  | 0.31 | > 50 | > 161 | 4.7 | 6.5 |  | 
COc1ccc(-n2cc(Cn3cnc([N+](=O)[O-])n3)nn2)cc1 |  | 0.84 | > 50 | > 59.5 | 4.7 | 6.07 |  | 
Nc1ccc2cc3ccccc3cc2c1 [2-AMINOANTHRACENE] |  |  |  |  |  |  |  | 977.33
O=C(Cn1ccnc1[N+](=O)[O-])NCc1ccccc1 [BENZNIDAZOLE] |  |  | > 50 | > 8.13 |  |  |  | 

Source: ChEMBL document CHEMBL5528040, “Design and Synthesis of Novel 3-Nitro-1H-1,2,4-triazole-1,2,3-triazole-1,4-disubstituted Analogs as Promising Antitrypanosomatid Agents: Evaluation of In Vitro Activity against Chagas Disease and Leishmaniasis” (J Med Chem, 2024)
